Assay results from patent EP0592600B1, “PROTEINS S POLYPEPTIDES AND USES THEREOF” (THE SCRIPPS RESEARCH INSTITUTE, priority 1991, dated 1993).
Ends that are not written are not given here. Peptide text beside a SMILES is read from it.

T1: PS:C4BP complex (Homo sapiens, UniProt P04003+P20851)
T1 construct: Purified human C4BP was obtained from 5 liters (1) of human citrated plasma; from tissue; host or cells: human citrated plasma (C4BP); protein S per Schwarz et al
T1 sequence (P04003 49-597): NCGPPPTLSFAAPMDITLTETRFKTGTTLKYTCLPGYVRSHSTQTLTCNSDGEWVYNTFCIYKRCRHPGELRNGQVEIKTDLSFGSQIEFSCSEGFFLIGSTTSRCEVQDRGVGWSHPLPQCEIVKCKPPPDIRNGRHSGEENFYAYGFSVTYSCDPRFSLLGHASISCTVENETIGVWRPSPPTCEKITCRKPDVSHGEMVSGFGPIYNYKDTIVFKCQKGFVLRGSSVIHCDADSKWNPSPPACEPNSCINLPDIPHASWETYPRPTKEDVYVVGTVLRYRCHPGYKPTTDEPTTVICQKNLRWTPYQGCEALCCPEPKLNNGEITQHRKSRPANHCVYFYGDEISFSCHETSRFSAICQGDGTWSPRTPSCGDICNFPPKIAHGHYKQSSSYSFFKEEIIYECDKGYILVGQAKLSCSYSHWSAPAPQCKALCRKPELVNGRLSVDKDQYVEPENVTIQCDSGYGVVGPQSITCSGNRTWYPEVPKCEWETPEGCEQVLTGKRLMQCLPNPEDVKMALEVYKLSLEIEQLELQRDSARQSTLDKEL
T1 sequence (P20851 18-252): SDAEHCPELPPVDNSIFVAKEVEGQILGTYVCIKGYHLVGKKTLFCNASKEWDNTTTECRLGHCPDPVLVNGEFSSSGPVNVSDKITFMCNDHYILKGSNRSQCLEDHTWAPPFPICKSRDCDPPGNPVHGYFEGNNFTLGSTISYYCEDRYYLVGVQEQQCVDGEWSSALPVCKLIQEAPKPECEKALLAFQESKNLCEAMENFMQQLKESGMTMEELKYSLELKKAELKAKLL

T2: C4b binding protein (human, UniProt P04003 49-597; P20851 18-252)
T2 construct: mature; The beta chain is added from general knowledge; Biotinylated (b-C4BP) in some assays; also called C4BP; purified human C4BP
T2 sequence (looked up) 1: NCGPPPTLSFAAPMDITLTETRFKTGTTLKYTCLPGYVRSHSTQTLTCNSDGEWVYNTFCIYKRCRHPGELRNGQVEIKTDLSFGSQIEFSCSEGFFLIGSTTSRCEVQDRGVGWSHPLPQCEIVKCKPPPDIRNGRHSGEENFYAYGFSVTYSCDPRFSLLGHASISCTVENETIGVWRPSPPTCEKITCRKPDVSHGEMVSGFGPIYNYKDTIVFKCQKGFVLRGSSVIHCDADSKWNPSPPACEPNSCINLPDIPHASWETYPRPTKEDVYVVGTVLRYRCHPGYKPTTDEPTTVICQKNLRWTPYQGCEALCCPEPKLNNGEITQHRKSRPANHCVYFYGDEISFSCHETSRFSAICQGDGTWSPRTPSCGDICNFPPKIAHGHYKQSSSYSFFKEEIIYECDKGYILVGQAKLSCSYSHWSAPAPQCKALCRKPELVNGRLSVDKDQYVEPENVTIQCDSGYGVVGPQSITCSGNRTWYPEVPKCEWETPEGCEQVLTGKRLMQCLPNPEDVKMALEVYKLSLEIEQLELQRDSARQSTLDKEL
T2 sequence (looked up) 2: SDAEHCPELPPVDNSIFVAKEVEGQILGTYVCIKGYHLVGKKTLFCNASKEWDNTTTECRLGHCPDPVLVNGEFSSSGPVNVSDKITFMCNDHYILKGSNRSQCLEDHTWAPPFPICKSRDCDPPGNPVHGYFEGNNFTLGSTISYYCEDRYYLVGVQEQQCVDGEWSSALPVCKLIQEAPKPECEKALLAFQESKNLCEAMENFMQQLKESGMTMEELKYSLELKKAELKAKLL


Assays:
PS:C4BP complex [1] = target: T1, PS:C4BP complex; assay: Peptide Inhibition Assay: binding of b-PS to C4BP in solid phase; settings: peptide concentration of 800 µM; read-out: percent inhibition of PS:C4BP complex formation
Method: Each of the peptides produced as described in Example 1 and listed in Table 1 was analyzed for its ability to inhibit the binding of native protein S in liquid-phase to C4BP in solid-phase.
Microtiter wells of a 96 well plate were coated with 50 µl of 10 µg/ml purified C4BP in carbonate buffer (0.02 M Na2CO3, pH 9.0, 0.02% Na-Azide). After blocking with 10% BSA in TBS, 50 µl of different concentrations of peptides diluted in washing buffer (TBS, 0.2% BSA, 5mM CaCl, 0.02% Tween 20) were separately admixed to C4BP-coated wells. After 2 hours at room temperature, 50 µl of a solution of biotinylated protein S, were admixed to each well to form a second binding admixture having a final concentration of 2 µg/ml. The plate was agitated and the samples were incubated 1 hour at room temperature. The samples were discarded and the wells were washed 3 times with washing buffer. To each well, 50 µl of strepavidin-alkaline-phosphatase (1 µg/ml washing buffer) were admixed and allowed to incubate for 30 minutes at room temperature. The strepavidin-alkaline-phosphatase was then discarded and the wells were washed 6 times with washing buffer. The resulting optical densities of the reaction solutions were read as described before in Example 2C.
Results of the assay are reported as percent inhibition of C4BP binding. Percent of inhibition of C4BP binding is defined as: I = 100% - 100 x (deltaT /deltaC ) [formula] • where I is expressed as a percent; and • where 100% = delta/min of the amount of b-PS which specifically bound to C4BP-coated wells in the absence of any competing PS-peptide; and • where deltaT = the change in absorbance (405 nm) in the presence of competing PS-peptide; and • where deltaC = the change in absorbance (405 nm) in the absence of competing PS-peptide.

PS:C4BP complex [2] = target: T1, PS:C4BP complex; assay: Peptide inhibition of binding of b-C4BP to PS-coated wells; settings: b-C4BP 1 µg/ml, PS-coated wells, peptide 0 - 500 µM; for IC90: read-out: IC90; for IC50: read-out: half-maximal inhibitory concentration (IC50)
Method: An alternative approach was used to test the ability of the peptides, PSP-loop and PSP-428K, in comparison with that seen with the PSP-12 peptide, in inhibiting the binding of C4BP to PS. For this assay, the microtiter wells were coated with purified PS diluted to a concentration of 10 µg/ml in carbonate-coating buffer as described above. The wells were maintained to allow the PS to bind to the well walls. After the maintenance period, the wells were blocked also as described above. The selected PSP peptides were separately admixed at various concentrations ranging from 0 - 500 µM with biotinylated-C4BP (b-C4BP) at a concentration of 1 µg/ml. The admixtures were maintained on a fluid phase plate for 2 hours at room temperature to form peptide-C4BP complexes.
Fifty µl of the complexed admixtures were separately admixed to the prepared C4BP-coated wells and maintained for 1 hour at room temperature. Thereafter, the plate was washed and processed for developing as described above.

PS:C4BP complex [3] = target: T1, PS:C4BP complex; assay: Fluid-phase peptide inhibition of PS binding to b-C4BP, detected on MAb S-7-coated plates; settings: b-C4BP 0.5 µg/ml, PS 1.0 µg/ml, peptide 0 - 500 µM
Method: An alternative approach was used to test the ability of the peptides, PSP-loop, PSP-424K and PSP-428K, in comparison with that seen with the PSP-12 peptide, in inhibiting the binding of PS to C4BP, the result of which was detected on monoclonal antibody-coated plates. For this assay, biotinylated-C4BP (b-C4BP), PS and PSP peptides were admixed together at the respective concentrations of 0.5 µg/ml, 1.0 µg/ml and at a range of 0 - 500 µM (V:V:V). The admixtures were maintained for 2 hours at room temperature on a fluid phase plate to allow the binding and/or inhibition thereof of PS to C4BP by the PS-derived peptides. After the maintenance period, 50 µl of the admixture were separately admixed to wells previously coated with 10 µg/ml of MAb S-7 (ATCC No. HB 80819). The admixtures were maintained for 1 hour at room temperature to allow for the binding of C4BP to MAb S-7-antibody-coated plates. The binding of biotinylated complexes to the antibody-coated plates was detected as described in Example 5Aii.

C4b binding protein [4] = target: T2, C4b binding protein; assay: Competition ELISA, peptide preincubated with b-C4BP, PS-coated wells
C4b binding protein [5] = target: T2, C4b binding protein; assay: Competition ELISA, peptide 800 µM on coated C4BP, then b-PS

% inhibition of PS:C4BP complex formation (C4b binding protein [5]) [%] | Molecule | inhibition at 800 µM (PS:C4BP complex [1]) [%] | further results
 | CC[C@H](C)[C@H](NC(=O)CNC(=O)[C@H](CO)NC(=O)[C@H](C)NC(=O)CNC(=O)[C@H](CCC(N)=O)NC(=O)[C@H](CCCCN)NC(=O)[C@H](CCSC)NC(=O)[C@H](CC(C)C)NC(=O)[C@@H](N)CC(N)=O)C(=O)N[C@@H](CCCCN)C(=O)N[C@@H](CCC(=O)O)C(N)=O [PSP-417P] (H-NLMKQGASGIKE-NH2) | ~60 | 
 | CC[C@H](C)[C@H](NC(=O)CNC(=O)[C@@H](N)CO)C(=O)N[C@@H](CCCCN)C(=O)N[C@@H](CCC(=O)O)C(=O)N[C@H](C(=O)N[C@H](C(=O)N[C@@H](CCC(N)=O)C(=O)N[C@@H](CCC(=O)O)C(=O)N[C@@H](CCCCN)C(=O)N[C@@H](CCC(N)=O)C(=O)N[C@@H](CC(N)=O)C(=O)N[C@@H](CCCCN)C(=O)N[C@@H](Cc1c[nH]cn1)C(=O)N[C@@H](CS)C(N)=O)[C@@H](C)CC)[C@@H](C)CC [PSP-12] (H-SGIKEIIQEKQNKHC-NH2; N-terminus assumed) | 80 | IC90 (PS:C4BP complex [2]): ~250 µM; IC50 (PS:C4BP complex [2]): ~50 µM; IC50 (PS:C4BP complex [3]): ~50 µM; IC90 (PS:C4BP complex [3]; read-out: IC90): ~250 µM
 | CC[C@H](C)[C@H](NC(=O)CN)C(=O)N[C@@H](CCCCN)C(=O)N[C@@H](CCC(=O)O)C(=O)N[C@H](C(=O)N[C@H](C(=O)N[C@@H](CCC(N)=O)C(N)=O)[C@@H](C)CC)[C@@H](C)CC [PSP-424, GIKEIIQ] (H-GIKEIIQ-NH2) | 40 | 
 | NCCCC[C@H](NC(=O)[C@H](CC(N)=O)NC(=O)[C@H](CCC(N)=O)NC(=O)[C@H](CCCCN)NC(=O)[C@H](CCC(=O)O)NC(=O)[C@@H](N)CCC(N)=O)C(=O)N[C@@H](Cc1c[nH]cn1)C(=O)N[C@@H](CO)C(N)=O [PSP-430*] (H-QEKQNKHS-NH2) | ~80 | 
 | CC[C@H](C)[C@H](NC(=O)CNC(=O)[C@H](CO)NC(=O)[C@H](C)NC(=O)CNC(=O)[C@@H](N)CCC(N)=O)C(=O)N[C@@H](CCCCN)C(=O)N[C@@H](CCC(=O)O)C(N)=O [PSP-417A] (H-QGASGIKE-NH2) | ~80 | 
 | CC[C@H](C)[C@H](NC(=O)[C@H](CCC(=O)O)NC(=O)[C@@H](N)CCCCN)C(=O)N[C@H](C(=O)N[C@@H](CCC(N)=O)C(=O)N[C@@H](CCC(=O)O)C(=O)N[C@@H](CCCCN)C(=O)N[C@@H](CCC(N)=O)C(=O)N[C@@H](CC(N)=O)C(=O)N[C@@H](CCCCN)C(=O)N[C@@H](Cc1c[nH]cn1)C(=O)N[C@@H](CO)C(N)=O)[C@@H](C)CC [PSP-428*, KEIIQEKQNKHS] (H-KEIIQEKQNKHS-NH2) | ~60 | 
 | CC[C@H](C)[C@H](NC(=O)CNC(=O)[C@H](CO)NC(=O)[C@H](C)NC(=O)CNC(=O)[C@H](CCC(N)=O)NC(=O)[C@H](CCCCN)NC(=O)[C@H](CCSC)NC(=O)[C@H](CC(C)C)NC(=O)[C@@H](N)CC(N)=O)C(N)=O [PSP-417] (H-NLMKQGASGI-NH2) | ~60 | 
 | CC[C@H](C)[C@H](NC(=O)CNC(=O)[C@@H](N)CO)C(=O)N[C@@H](CCCCN)C(=O)N[C@@H](CCC(=O)O)C(=O)N[C@H](C(=O)N[C@H](C(=O)N[C@@H](CCC(N)=O)C(=O)N[C@@H](CCCCN)C(=O)N[C@@H](CCCCN)C(=O)N[C@@H](CCC(N)=O)C(=O)N[C@@H](CC(N)=O)C(=O)N[C@@H](CCCCN)C(=O)N[C@@H](CS)C(N)=O)[C@@H](C)CC)[C@@H](C)CC [PSP-428K, SGIKEIIQKKQNKC] (H-SGIKEIIQKKQNKC-NH2) |  | IC90 (PS:C4BP complex [2]): ~250 µM; IC50 (PS:C4BP complex [2]): ~50 µM
 | SGIKEIIQKKQNKC-NH2 (protein S 420-432,434 with a substitution) [PSP-428K*] |  | IC90 (C4b binding protein [4]): ~250 µM
80 | QEKQNKHS-NH2 [PSP-430*] |  | 
60 | KEIIQEKQNKHS-NH2 [PSP-428*] |  | 
60 | NLMKQGASGIKE-NH2 [PSP-417P] |  | 
40 | GIKEIIQ-NH2 [PSP-424] |  | 
80 | QGASGIKE-NH2 [PSP-417A] |  | 
60 | NLMKQGASGI-NH2 [PSP-417] |  | 
 | SGIKEIIQEKQNKHC-NH2 (also: biotinylated form b-PSP-12 also used, also called b-PSP-12 (biotinylated)) [PSP-12] |  | IC50 (C4b binding protein [4]): ~50 µM; IC90 (C4b binding protein [4]): ~250 µM
